# Like-named read-outs stand apart in the source and are kept apart here.
# Legend:
# [1] = Stability and biodistribution of prodrugs in vivo (HPLC of plasma and tissues); design: species or system mice (CD-1 nude; BALB/C where indicated); conditions: for stability in vivo (in words): mice
# [2] = target: T1, wild type human carboxypeptidase A1 (Homo sapiens, UniProt P15085); assay: Enzyme kinetics of prodrugs with wild type human carboxypeptidase A1 (coupled assay); format: biochemical
# T1 sequence (P15085 111-419): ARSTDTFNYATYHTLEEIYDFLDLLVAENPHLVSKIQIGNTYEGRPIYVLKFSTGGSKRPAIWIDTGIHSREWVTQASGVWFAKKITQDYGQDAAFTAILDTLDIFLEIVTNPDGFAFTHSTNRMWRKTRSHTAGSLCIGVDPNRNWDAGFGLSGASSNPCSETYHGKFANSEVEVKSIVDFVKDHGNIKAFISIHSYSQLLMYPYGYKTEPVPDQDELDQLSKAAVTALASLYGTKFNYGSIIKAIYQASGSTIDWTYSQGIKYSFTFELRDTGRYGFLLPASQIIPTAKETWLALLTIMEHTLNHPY
# In short: (§1)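 Coupled spectrophotometric assay: released methotrexate converted by excess carboxypeptidase G (17 milliunits) to its pteroate, followed at 315 nm (Δε 9.57 mM^-1 cm^-1). 25° C in 25 mM tris-HCl, 100 mM NaCl, pH 7.4; reaction started with wild-type or mutant carboxypeptidase A. Kinetic constants from initial velocities by Michaelis-Menten analysis.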
# 268ala = assay: Enzyme kinetics of prodrugs with 268ala mutant of human CPA1 (coupled assay); format: biochemical; conditions: 25° C., pH 7.4
# In short: as §1
# 268gly = assay: Enzyme kinetics of prodrugs with 268gly mutant of human CPA1 (coupled assay); format: biochemical; conditions: for kcat/Km: 268Gly
# In short: as §1
# mutant enzyme = assay: Substrate behaviour with mutant enzyme; format: biochemical, human
# Excerpt: This type of compound is not useful for ADEPT.
# in vivo = conditions: mouse, iv
# [3] = CECUM, 30 min, 50 mg/kg i.p. or i.v., CD-1 nude mice
# [4] = CECUM, 120 min, 50 mg/kg i.p. or i.v., CD-1 nude mice
# [5] = FECES, 30 min, 50 mg/kg i.p. or i.v., CD-1 nude mice
# [6] = FECES, 120 min, 50 mg/kg i.p. or i.v., CD-1 nude mice
# [7] = KIDNEY, 30 min, 50 mg/kg i.p. or i.v., CD-1 nude mice
# [8] = KIDNEY, 120 min, 50 mg/kg i.p. or i.v., CD-1 nude mice
# [9] = LARGE INTESTINE, 30 min, 50 mg/kg i.p. or i.v., CD-1 nude mice
# [10] = LARGE INTESTINE, 120 min, 50 mg/kg i.p. or i.v., CD-1 nude mice
# [11] = LIVER, 30 min, 50 mg/kg i.p. or i.v., CD-1 nude mice
# [12] = LIVER, 120 min, 50 mg/kg i.p. or i.v., CD-1 nude mice
# [13] = SMALL INTESTINE, 30 min, 50 mg/kg i.p. or i.v., CD-1 nude mice
# [14] = SMALL INTESTINE, 120 min, 50 mg/kg i.p. or i.v., CD-1 nude mice
# [15] = SPLEEN, 30 min, 50 mg/kg i.p. or i.v., CD-1 nude mice
# [16] = mouse, cecum, 50 mg/kg, CECUM, 30 min, 50 mg/kg i.p. or i.v., CD-1 nude mice, read-out: stability: percentage of material observed as intact prodrug, cecum
# [17] = mouse, cecum, 50 mg/kg, CECUM, 120 min, 50 mg/kg i.p. or i.v., CD-1 nude mice, read-out: stability: percentage of material observed as intact prodrug, cecum
# [18] = mouse, feces, 50 mg/kg, FECES, 30 min, 50 mg/kg i.p. or i.v., CD-1 nude mice, read-out: stability: percentage of material observed as intact prodrug, feces (converted)
# [19] = mouse, feces, 50 mg/kg, FECES, 120 min, 50 mg/kg i.p. or i.v., CD-1 nude mice, read-out: stability: percentage of material observed as intact prodrug, feces
# [20] = mouse, kidney, 50 mg/kg, KIDNEY, 30 min, 50 mg/kg i.p. or i.v., CD-1 nude mice, read-out: stability: percentage of material observed as intact prodrug, kidney
# [21] = mouse, kidney, 50 mg/kg, KIDNEY, 120 min, 50 mg/kg i.p. or i.v., CD-1 nude mice, read-out: stability: percentage of material observed as intact prodrug, kidney
# [22] = mouse, large intestine, 50 mg/kg, LARGE INTESTINE, 30 min, 50 mg/kg i.p. or i.v., CD-1 nude mice, read-out: stability: percentage of material observed as intact prodrug, large intestine
# [23] = mouse, large intestine, 50 mg/kg, LARGE INTESTINE, 120 min, 50 mg/kg i.p. or i.v., CD-1 nude mice, read-out: stability: percentage of material observed as intact prodrug, large intestine
# [24] = mouse, liver, 50 mg/kg, LIVER, 30 min, 50 mg/kg i.p. or i.v., CD-1 nude mice, read-out: stability: percentage of material observed as intact prodrug, liver (converted)
# [25] = mouse, liver, 50 mg/kg, LIVER, 120 min, 50 mg/kg i.p. or i.v., CD-1 nude mice, read-out: stability: percentage of material observed as intact prodrug, liver
# [26] = mouse, plasma, 50 mg/kg, PLASMA, 30 min, 50 mg/kg i.p. or i.v., CD-1 nude mice, read-out: concentration of prodrug in plasma
# [27] = mouse, plasma, 50 mg/kg, PLASMA, 30 min, 50 mg/kg i.p. or i.v., CD-1 nude mice, read-out: stability: percentage of material observed as intact prodrug, plasma
# [28] = mouse, small intestine, 50 mg/kg, SMALL INTESTINE, 30 min, 50 mg/kg i.p. or i.v., CD-1 nude mice, read-out: stability: percentage of material observed as intact prodrug, small intestine
# [29] = mouse, small intestine, 50 mg/kg, SMALL INTESTINE, 120 min, 50 mg/kg i.p. or i.v., CD-1 nude mice, read-out: stability: percentage of material observed as intact prodrug, small intestine
# [30] = mouse, spleen, 50 mg/kg, SPLEEN, 30 min, 50 mg/kg i.p. or i.v., CD-1 nude mice, read-out: stability: percentage of material observed as intact prodrug, spleen
smiles,measurement,setting,value
CN(Cc1cnc2nc(N)nc(N)c2n1)c1ccc(C(=O)N[C@@H](CCC(=O)O)C(=O)N[C@@H](Cc2ccccc2C2CCCC2)C(=O)O)cc1 [Prodrug 8],concentration of prodrug in cecum,[1]; [3],6.8 nmol/g
same,concentration of prodrug in cecum,[1]; [4],235.1 nmol/g
same,concentration of prodrug in feces,[1]; [5],150.2 nmol/g
same,concentration of prodrug in feces,[1]; [6],646.2 nmol/g
same,concentration of prodrug in kidney,[1]; [7],5.6 nmol/g
same,concentration of prodrug in kidney,[1]; [8],3.2 nmol/g
same,concentration of prodrug in large intestine,[1]; [9],5.2 nmol/g
same,concentration of prodrug in large intestine,[1]; [10],27.3 nmol/g
same,concentration of prodrug in liver,[1]; [11],113.5 nmol/g
same,concentration of prodrug in liver,[1]; [12],43.9 nmol/g
same,concentration of prodrug in small intestine,[1]; [13],364.5 nmol/g
same,concentration of prodrug in small intestine,[1]; [14],31.7 nmol/g
same,concentration of prodrug in spleen,[1]; [15],1.4 nmol/g
same,concentration of prodrug in spleen,"[1]; SPLEEN, 120 min, 50 mg/kg i.p. or i.v., CD-1 nude mice",1.1 nmol/g
same,stability in vivo (in words),[1]; 50 mg/kg,stable in vivo
same,remaining at 0.5 h,[1]; [16],75%
same,remaining at 2 h,[1]; [17],56%
same,remaining at 0.5 h,[1]; [18],71%
same,remaining at 2 h,[1]; [19],55%
same,remaining at 0.5 h,[1]; [20],84%
same,remaining at 2 h,[1]; [21],81%
same,remaining at 0.5 h,[1]; [22],93%
same,remaining at 2 h,[1]; [23],57%
same,remaining at 0.5 h,[1]; [24],90%
same,remaining at 2 h,[1]; [25],76%
same,concentration at 0.5 h,[1]; [26],28500 nM
same,remaining at 0.5 h,[1]; [27],95%
same,concentration at 2 h,"[1]; mouse, plasma, 50 mg/kg, PLASMA, 120 min, 50 mg/kg i.p. or i.v., CD-1 nude mice, read-out: concentration of prodrug in plasma",1100 nM
same,remaining at 2 h,"[1]; mouse, plasma, 50 mg/kg, PLASMA, 120 min, 50 mg/kg i.p. or i.v., CD-1 nude mice, read-out: stability: percentage of material observed as intact prodrug, plasma",90%
same,remaining at 0.5 h,[1]; [28],77%
same,remaining at 2 h,[1]; [29],35%
same,remaining at 0.5 h,[1]; [30],98%
same,remaining at 2 h,"[1]; mouse, spleen, 50 mg/kg, SPLEEN, 120 min, 50 mg/kg i.p. or i.v., CD-1 nude mice, read-out: stability: percentage of material observed as intact prodrug, spleen",100%
same,kcat/Km for human CPA1 compared with that of the L-phenylalanine prodrug (in words),[2],much lower
same,substrate for wild type CPA (in words),[2],not for the wild type enzyme
same,kcat,"[2]; Human CPA1, 25° C., pH 7.4",0.012 s⁻¹
same,Km,268ala,56 µM
same,kcat,268ala,0.088 s⁻¹
same,kcat/Km,268gly,157000 M⁻¹ s⁻¹
same,Km,"268gly; 268gly, 25° C., pH 7.4",15 µM
same,kcat,"268gly; 268gly, 25° C., pH 7.4",2.35 s⁻¹
same,substrate for a mutant enzyme (in words),mutant enzyme,good substrates for a mutant enzyme
same,MTD,in vivo,≥ 20 mg/kg
CN(Cc1cnc2nc(N)nc(N)c2n1)c1ccc(C(=O)N[C@@H](CCC(=O)O)C(=O)N[C@@H](Cc2cccc(C3CCCC3)c2)C(=O)O)cc1 [Prodrug 9],concentration of prodrug in cecum,[1]; [3],4.l
same,concentration of prodrug in cecum,[1]; [4],108.3 nmol/g
same,concentration of prodrug in feces,"[1]; FECES, 30 min, 50 mg/kg i.p. or i.v., BALB/C mice",1604.27 nmol/g
same,concentration of prodrug in feces,[1]; [5],1104.1 nmol/g
same,concentration of prodrug in feces,[1]; [6],1505.7 nmol/g
same,concentration of prodrug in kidney,[1]; [7],6.8 nmol/g
same,concentration of prodrug in kidney,[1]; [8],1.3 nmol/g
same,concentration of prodrug in large intestine,[1]; [9],2.6 nmol/g
same,concentration of prodrug in large intestine,[1]; [10],6.2 nmol/g
same,concentration of prodrug in liver,[1]; [11],54.3 nmol/g
same,concentration of prodrug in liver,[1]; [12],126.2 nmol/g
same,concentration of prodrug in small intestine,"[1]; SMALL INTESTINE, 30 min, 50 mg/kg i.p. or i.v., BALB/C mice",420.3 nmol/g
same,concentration of prodrug in small intestine,[1]; [13],377.9 nmol/g
same,concentration of prodrug in small intestine,[1]; [14],211.0 nmol/g
same,concentration of prodrug in spleen,[1]; [15],8.4 nmol/g
same,stability in vivo (in words),[1]; 50 mg/kg,stable in vivo
same,remaining at 0.5 h,[1]; [16],100%
same,remaining at 2 h,[1]; [17],99%
same,remaining at 0.5 h,"[1]; mouse, feces, 50 mg/kg, FECES, 30 min, 50 mg/kg i.p. or i.v., BALB/C mice, read-out: stability: percentage of material observed as intact prodrug, feces (converted)",98%
same,remaining at 0.5 h,[1]; [18],97%
same,remaining at 2 h,[1]; [19],94%
same,remaining at 0.5 h,[1]; [20],100%
same,remaining at 2 h,[1]; [21],100%
same,remaining at 0.5 h,[1]; [22],100%
same,remaining at 2 h,[1]; [23],100%
same,remaining at 0.5 h,[1]; [24],83%
same,remaining at 2 h,[1]; [25],94%
same,concentration at 0.5 h,"[1]; mouse, plasma, 50 mg/kg, PLASMA, 30 min, 50 mg/kg i.p. or i.v., BALB/C mice, read-out: concentration of prodrug in plasma",4900 nM
same,remaining at 0.5 h,"[1]; mouse, plasma, 50 mg/kg, PLASMA, 30 min, 50 mg/kg i.p. or i.v., BALB/C mice, read-out: stability: percentage of material observed as intact prodrug, plasma",100%
same,concentration at 0.5 h,[1]; [26],1100 nM
same,remaining at 0.5 h,[1]; [27],100%
same,remaining at 0.5 h,"[1]; mouse, small intestine, 50 mg/kg, SMALL INTESTINE, 30 min, 50 mg/kg i.p. or i.v., BALB/C mice, read-out: stability: percentage of material observed as intact prodrug, small intestine",98%
same,remaining at 0.5 h,[1]; [28],97%
same,remaining at 2 h,[1]; [29],93%
same,remaining at 0.5 h,[1]; [30],100%
same,human CPA catalyzed reaction (in words),[2],not measureable
same,kcat/Km for human CPA1 compared with that of the L-phenylalanine prodrug (in words),[2],much lower
same,substrate for wild type CPA (in words),[2],not for the wild type enzyme
same,kcat/Km,268gly,92000 M⁻¹ s⁻¹
same,substrate for a mutant enzyme (in words),mutant enzyme,good substrates for a mutant enzyme
